Experiments:
Type in all cases: cell-based
[1] = system: Staphylococcus aureus IF03083; experiment: Growth inhibition zone on agarose plate (Test Example 2); conditions: 2 μl of 50 μM solution per well, NB plate, no sodium chloride, 2.0 mm = no zone
Protocol: (§1) The antibacterial activity of the moricin obtained in Example 1 against various bacteria was examined based on the method described in Nature, 292:246 (1981).
(§2) NB plate medium containing 0.8% agarose (optionally, sodium chloride was added thereto to give a concentration of 150 mM) was used.
(§3) 50 μM moricin solution was prepared. 2 μl of this solution was added to each well of a plate medium into which a test bacterium had been inoculated. The plate was incubated at 30° C. overnight and then diameters of the growth inhibition zones formed were measured. As a control, cecropin B1 was used. Incidentally, the diameter of the well was 2.0 mm.

Escherichia coli JM109 [2] = experiment: as above; conditions: 2 μl of 50 μM solution per well, NB plate, no sodium chloride, well 2.0 mm, 2.0 mm = no zone
Protocol: as §1, §2, §3

[3] = system: Bacillus megaterium IAM1030; experiment: as above; conditions: 2 μl of 50 μM solution per well, NB plate, no sodium chloride, 2.0 mm = no zone
Protocol: as §1, §2, §3

[4] = system: Staphylococcus xylosus IAM1312; experiment: as above; conditions: 2 μl of 50 μM solution per well, NB plate, no sodium chloride, 2.0 mm = no zone
Protocol: as §1, §2, §3

[5] = system: Staphylococcus epidermidis IF012993; experiment: as above; conditions: 2 μl of 50 μM solution per well, NB plate, no sodium chloride, 2.0 mm = no zone
Protocol: as §1, §2, §3

[6] = system: Pseudomonas aeruginosa IAM1514; experiment: as above; conditions: 2 μl of 50 μM solution per well, NB plate, no sodium chloride, 2.0 mm = no zone
Protocol: as §1, §2, §3

Bacillus cereus IF03457 [7] = experiment: as above; conditions: 2 μl of 50 μM solution per well, NB plate, no sodium chloride, 2.0 mm = no zone
Protocol: as §1, §2, §3

[8] = system: Pseudomonas fluorescens IAM1179; experiment: as above; conditions: 2 μl of 50 μM solution per well, NB plate, no sodium chloride, 2.0 mm = no zone
Protocol: as §1, §2, §3

[9] = system: Staphylococcus aureus ATCC6538P; experiment: as above; conditions: 2 μl of 50 μM solution per well, 2.0 mm = no zone
Protocol: as §1, §2, §3

[10] = system: Bacillus subtilis IAM1107; experiment: as above; conditions: 2 μl of 50 μM solution per well, NB plate, no sodium chloride, 2.0 mm = no zone
Protocol: as §1, §2, §3

Escherichia coli JM109 [11] = experiment: Minimum inhibitory concentration (M.I.C.), liquid medium; conditions: BHI medium, 30° C. for 20 hours
Protocol: (§4) In order to examine the antibacterial activity of the moricin obtained in Example 1 against various bacteria, the mimimum inhibitory concentration (M.I.C.) of moricin was measured based on the method described in Eur. J. Biochem., 187:381-386 (1990).
(§5) When E. coli and Staphylococcus aureus subsp. aureus were used as test bacteria, brain heart infusion medium (BHI medium, Difco) was used. When Bacillus cereus was used as a test bacterium, nutrient broth medium (NB medium, Difco) was used.
(§6) To a test medium suspending a test bacterium at a concentration of 4×10^4 cells/ml, an equal volume of the same medium containing moricin at varied concentrations was added and incubated at 30° C. for 20 hours. After the incubation, an equal volume of 6% formalin was added thereto to give a two-fold dilution. Then, the degree of cell proliferation was examined by measuring the absorbance at 650 nm. As a control, cecropin B1 [Comp. Biochem. Physiol. 95B:551 (1990)] was used which is a known antibacterial peptide derived from silkworm.

[12] = system: Staphylococcus aureus subsp. aureus ATCC 6538P; experiment: as above; conditions: BHI medium, 30° C. for 20 hours
Protocol: as §4, §5, §6

Bacillus cereus IF03457 [13] = experiment: as above; conditions: NB medium, 30° C. for 20 hours
Protocol: as §4, §5, §6

[14] = system: Streptococcus pyogenes ATCC21547; experiment: Growth inhibition zone on agarose plate (Test Example 2); conditions: 2 μl of 50 μM solution per well, BHI plate, no sodium chloride, 2.0 mm = no zone
Protocol: as §1
When Streptococcus pyogenes was used as a test bacterium, 0.8% agarose-containing BHI plate medium was used.
as §3

Substance: Cecropin B1: known antibacterial peptide derived from silkworm, used as a control (RWKIFKKIEKMGRNIRDGIVKAGPAIEVLGSAKAI; UniProt P04142 27-61, looked up)
- Diameter of the Inhibition Zone [1]: 2.0 mm
- Diameter of the Inhibition Zone (Escherichia coli JM109 [2]): 10.1 mm
- Diameter of the Inhibition Zone [3]: 10.9 mm
- Diameter of the Inhibition Zone [4]: 2.0 mm
- Diameter of the Inhibition Zone [5]: 9.0 mm
- Diameter of the Inhibition Zone [6]: 7.9 mm
- Diameter of the Inhibition Zone (Bacillus cereus IF03457 [7]): 2.0 mm
- Diameter of the Inhibition Zone [8]: 8.9 mm
- Diameter of the Inhibition Zone ([9]; NB plate with 150 mM sodium chloride): 2.3 mm
- Diameter of the Inhibition Zone ([9]; NB plate, no sodium chloride): 6.9 mm
- Diameter of the Inhibition Zone [10]: 7.8 mm
- M.I.C. (Escherichia coli JM109 [11]): < 1 µg/mL
- M.I.C. [12]: > 16 µg/mL
- M.I.C. (Bacillus cereus IF03457 [13]): > 16 µg/mL
- Diameter of the Inhibition Zone [14]: 2.0 mm
